Molecules are shown by their SMILES.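 48-hour exposure; five concentrations; linearly interpolated endpoints. TGI denotes the concentration required for complete inhibition of growth.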

Drawing on PubChem BioAssay (NCI), this text covers TGI for 13 compounds.

Holding throughout (test): DTP human tumour cell line panel, 48 h
In assay [1] the test system is A498 renal.
For assay [2], the system named is HL-60(TB) leukemia.
The subject of assay [3] is IGROV1 ovarian.
Assay [4] deals with LOX IMVI melanoma.
Assay [5] relates to OVCAR-3 ovarian.
Assay [6] has as its system OVCAR-8 ovarian.
Assay [7] concerns RXF 393 renal.
Assay [8] has as its system SF-539 CNS.
Assay [9] relates to SK-MEL-2 melanoma.
Assay [10] relates to SNB-75 CNS.
The test system of assay [11] is U251 CNS.
The subject of assay [12] is MDA-MB-231 breast.

The TGI is the concentration giving total growth inhibition. As to `COc1ccc(/C=C2\OC(=O)C(Cl)=C2c2ccc(OC)c(Cl)c2)cc1`, the concentration for total growth inhibition (TGI) in [1] was 39.1 µM; in [2], over 100 µM; in [3], over 100 µM; in assay [4], over 100 µM; in assay [5], 43.7 µM; in assay [6], 60.8 µM. Also, the concentration for total growth inhibition (TGI) in assay [7] was 29.5 µM; in [8] it was 33.2 µM; in [9], over 100 µM; in assay [10], 63.4 µM; in assay [11] it was over 100 µM.
As to `O=S(=O)(O)c1cc(N=[N+]([O-])c2ccc(N=Nc3ccccc3)cc2S(=O)(=O)O)ccc1/C=C/c1ccc(N=[N+]([O-])c2ccc(N=Nc3ccccc3)cc2S(=O)(=O)O)cc1S(=O)(=O)O`, the concentration for total growth inhibition (TGI) in assay [1], in assay [2], in assay [3], in [4], in [5] and in assay [6] was over 100 µM each time. The TGI is over 100 µM in assay [7]; over 31.6 µM in assay [8]; over 100 µM in [9]; over 100 µM in assay [10]; over 100 µM in [11].
On to `CCOC(=O)CN1C(=O)C(=O)N(c2ccc(OC)c3ccccc23)C1=O`, for which the TGI in assay [2], in assay [4], in assay [5], in assay [6], in assay [7] and in assay [8] was over 100 µM in each case. Moreover, the total growth inhibition concentration (TGI) in [9], in assay [10] and in assay [11] was over 100 µM in each case.
`O=[N+]([O-])c1ccc(Nc2cccc3c2[nH]c2c(-c4ccccc4)nccc23)c([N+](=O)[O-])c1`: the concentration for total growth inhibition (TGI) in assay [1], in assay [2], in [3], in [4], in assay [5] and in assay [6] was over 100 µM in each case. For the same compound, the TGI in assay [7], in [8], in [9], in assay [10] and in assay [11] was over 100 µM in each case.
Take `CC(C)N1[C@@H]2CCCC[C@H]2N(C(C)C)[P+]1=O`: the concentration for total growth inhibition (TGI) in [1], in assay [5], in assay [6], in assay [7], in assay [8] and in assay [10] was over 100 µM each time.
As to `CCN(CC)C(=O)c1cc([N+](=O)[O-])c(=O)n2c1[nH]c1ccccc12`, the TGI in assay [2], in [3], in assay [4], in assay [12], in [5] and in assay [6] was over 100 µM in each case. For the same compound, the TGI in [7], in assay [8] and in assay [10] was over 100 µM in each case.
`CCN(CCC#N)C(=O)Nc1ccccc1`: the TGI in assay [3], in assay [4], in [12], in [5], in assay [6] and in assay [7] was over 100 µM throughout. For the same compound, the TGI in assay [8], in [9], in [10] and in [11] was over 100 µM throughout.
As for `CC1=C(C(=O)NCc2ccccc2)C(c2ccco2)C(C(=O)NCc2ccccc2)=C(C)N1`, the TGI in assay [1], in assay [2], in [3], in assay [4], in assay [5] and in assay [6] was over 100 µM in each case. For the same compound, the TGI in assay [7] is over 100 µM; in assay [8], over 100 µM; in assay [9], 92.6 µM; in assay [10], over 100 µM; in assay [11], over 100 µM.
As to `Cn1c2ccccc2c2c3c(c4c5ccccc5n(C)c4c21)C(=O)N(c1ccccc1)C3=O`, the TGI in assay [1], in assay [3], in assay [4], in assay [12], in assay [5] and in assay [6] was over 100 µM each time. In addition, the concentration for total growth inhibition (TGI) in [8], in assay [9], in assay [10] and in [11] was over 100 µM throughout.
For the compound `Cc1ccc(C(=O)N/N=C(\N=Nc2ccccc2C(=O)O)c2ccc(N(C)C)cc2)cc1`, the concentration for total growth inhibition (TGI) in assay [2] is over 100 µM; in assay [3], over 100 µM; in assay [4], over 100 µM; in assay [12], over 100 µM; in [5], 99.3 µM; in assay [6], over 100 µM. Moreover, the concentration for total growth inhibition (TGI) in assay [8], in assay [9] and in assay [11] was over 100 µM in each case.
Turning to `CCCCCCCCCCOc1ccc(N=Nc2nnc(-c3ccc(OCCCCC)cc3)s2)cc1`, the total growth inhibition concentration (TGI) in [1], in [3], in assay [4], in assay [12], in assay [5] and in assay [6] was over 100 µM in each case. The concentration for total growth inhibition (TGI) in [7], in assay [8] and in [11] was over 100 µM each time.
Consider `CC1=NN2CCC(=O)N=C2S1`, for which the TGI in assay [2], in assay [3], in assay [4], in assay [12], in assay [5] and in assay [6] was over 100 µM throughout. The total growth inhibition concentration (TGI) in assay [7], in [8], in assay [9], in [10] and in assay [11] was over 100 µM each time.
On to `Nc1ccc(C(=O)O)cc1`, for which the total growth inhibition concentration (TGI) in assay [2], in assay [3], in [4], in assay [12], in assay [5] and in [6] was over 100 µM in each case. In addition, the TGI in assay [8], in assay [9], in assay [10] and in assay [11] was over 100 µM in each case.
